From patent US20240174690A1, “ANNULATED 2-AMINO-3-CYANO THIOPHENES AND DERIVATIVES FOR THE TREATMENT OF CANCER” (BOEHRINGER INGELHEIM INTERNATIONAL GMBH, priority 2021, published 2024)

Tests used:
AsPC-1 cells = experiment: AsPC-1 CTG proliferation assay (120 h) (pancreatic cancer, G12D); format: cell-based; conditions: Homo sapiens, ASPC1
Outline: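 AsPC-1 cells (KRAS G12D), 2000/well in RPMI with 10% FCS, seeded overnight, then treated with compound for 120 h at 37 °C. Viability by CellTiter-Glo luminescence as percent of DMSO control. IC50 from a four-parameter non-linear fit.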

[1] = Metabolic (microsomal) stability assay, human liver microsomes (HLM); format: in vitro ADME; conditions: predicted clearance as percent of liver blood flow, 1 μM
Outline: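 LC-MS/MS tracked parent disappearance at 0, 5, 15, 30 and 60 min in NADPH-initiated incubations with 1 mg/mL human microsomal protein and 1 μM compound at 37°C, pH 7.5. First-order fits gave intrinsic clearance, which was scaled up and reported as % QH. NADPH-free controls were also run.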

[2] = Plasma protein binding assay (PPB), equilibrium dialysis, 10% FCS in PBS; format: in vitro ADME; conditions: bovine, read-out: PPB 10% FCS (% fu)
Outline: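 Equilibrium dialysis (5-10 kg/mol cut-off membrane) of 1-10 μmol/L test compound in 10% FCS/PBS against PBS with or without dextran, 3-5 h at 37° C. Compound in each chamber quantified by LC-MS after protein precipitation; fu calculated from Cserum and Cbuffer.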

SK-CO-1 cells = experiment: SK-CO-1 CTG proliferation assay (120 h) (CRC, G12V); format: cell-based; conditions: Homo sapiens; SK-CO-1 cells (CRC, G12V), CTG 120 h
Outline: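 SK-CO-1 colorectal cells (KRAS G12V), 500 per well in EMEM + 10% FCS, dosed with compound the day after seeding and grown 120 h at 37 °C. Viability by CellTiter-Glo luminescence as percent of DMSO control; IC50 from four-parameter non-linear regression.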

With `C[C@@H]1CN(c2cc(O[C@@H](C)[C@@H]3CCCN3C)nc(-c3noc4c3CCC[C@@]43CCCc4sc(N)c(C#N)c43)n2)CCN1` [II-161] the IC50 (AsPC-1 cells) was 1600 nM, the “HLM QH” value [1] was under 24% and the fraction unbound [2] was 0.37. The IC50 (SK-CO-1 cells) was 1020 nM.
With `C[C@H](Oc1cc(N2CCN(C)C3(CC3)C2)nc(-c2noc3c2CCC[C@@]32CCCc3sc(N)c(C#N)c32)n1)[C@@H]1C[C@@H](F)CN1C` [II-149] the IC50 (AsPC-1 cells) was 257 nM, the “HLM QH” value [1] was 45% and the fraction unbound [2] was 0.17. The IC50 (SK-CO-1 cells) was 1980 nM.
For `CC(C)NC(=O)Cc1ccn(-c2cc(O[C@@H](C)[C@@H]3CCCN3C)nc(-c3noc4c3CCC[C@@]43CCCc4sc(N)c(C#N)c43)n2)n1` [II-182], the IC50 (AsPC-1 cells) was 188 nM, the “HLM QH” value [1] was 35% and the fraction unbound [2] was 0.13. For the same compound, the IC50 (SK-CO-1 cells) was 9 nM.
With `COCCNC(=O)c1ccn(-c2cc(O[C@@H](C)[C@@H]3[C@@H](OC)CCN3C)nc(-c3noc4c3CCC[C@@]43CCCc4sc(N)c(C#N)c43)n2)n1` [II-200] the IC50 (AsPC-1 cells) was 340 nM, the “HLM QH” value [1] was 65% and the fraction unbound [2] was 0.03. It also gave an IC50 (SK-CO-1 cells) of 5 nM.
With `COCCNC(=O)c1ccn(-c2cc(O[C@@H](C)[C@@H]3CCCN3C)nc(-c3noc4c3CCC[C@@]43CCCc4sc(N)c(C#N)c43)n2)n1` [II-195] the IC50 (AsPC-1 cells) was 282 nM, the “HLM QH” value [1] was 44% and the fraction unbound [2] was 0.24. For the same compound, the IC50 (SK-CO-1 cells) was 4 nM.
With `C[C@H](Oc1cc(N2CCNC[C@@]23CCOC3)nc(-c2onc3c2CCC[C@@]32CCCc3sc(N)c(C#N)c32)n1)[C@@H]1CCCN1C` [I-13] the IC50 (AsPC-1 cells) was 1550 nM, the “HLM QH” value [1] was under 24% and the fraction unbound [2] was 0.21. The IC50 (SK-CO-1 cells) was 2160 nM.
With `C[C@H](NC(=O)c1ccn(-c2cc(O[C@@H](C)[C@@H]3CCCN3C)nc(-c3noc4c3CCC[C@@]43CCCc4sc(N)c(C#N)c43)n2)n1)c1ccccn1` [II-191] the IC50 (AsPC-1 cells) was 425 nM, the “HLM QH” value [1] was 32% and the fraction unbound [2] was 0.03. The IC50 (SK-CO-1 cells) was 3 nM.
For `C[C@H](Oc1cc(N2CCN[C@@H](C)C2)nc(-c2noc3c2CCC[C@@]32CCCc3sc(N)c(C#N)c32)n1)[C@@H]1CCCN1C` [II-162], the IC50 (AsPC-1 cells) was 922 nM, the “HLM QH” value [1] was under 24% and the fraction unbound [2] was 0.69. The IC50 (SK-CO-1 cells) was 980 nM.
In the case of `C[C@H](Oc1cc(-n2cncn2)nc(-c2onc3c2CCC[C@@]32CCCc3sc(N)c(C#N)c32)n1)[C@@H]1CCCN1C` [I-18], the IC50 (AsPC-1 cells) is reported as 7070 nM, the “HLM QH” value [1] is reported as 48% and the fraction unbound [2] is reported as 0.61. The IC50 (SK-CO-1 cells) was 236 nM.
With `C[C@H](Oc1cc(-n2cc3ccn([C@@H]4CCOC4)c(=O)c3n2)nc(-c2noc3c2CCC[C@@]32CCCc3sc(N)c(C#N)c32)n1)[C@@H]1CCCN1C` [II-203] the IC50 (AsPC-1 cells) was 483 nM, the “HLM QH” value [1] was under 24% and the fraction unbound [2] was 0.04. The IC50 (SK-CO-1 cells) was 12 nM.
For `C[C@H](Oc1nc(-c2noc3c2CCC[C@@]32CCCc3sc(N)c(C#N)c32)nc(N2CCN(C)C3(CC3)C2)c1Cl)[C@@H]1C[C@@H](F)CN1C` [II-176], the IC50 (AsPC-1 cells) was 851 nM, the “HLM QH” value [1] was 63% and the fraction unbound [2] was 0.01. It also gave an IC50 (SK-CO-1 cells) of 2060 nM.
In the case of `C[C@H](Oc1cc(N2CCN(C)C3(CCOC3)C2)nc(-c2noc3c2CCC[C@@]32CCCc3sc(N)c(C#N)c32)n1)[C@@H]1C[C@@H](F)CN1C` (stereo partly drawn) [II-151], the IC50 (AsPC-1 cells) is reported as 714 nM, the “HLM QH” value [1] is reported as 59% and the fraction unbound [2] is reported as 0.24. It also gave an IC50 (SK-CO-1 cells) of 1360 nM.
With `C[C@H](Oc1cc(N2CCOC2=O)nc(-c2noc3c2CCC[C@@]32CCCc3sc(N)c(C#N)c32)n1)[C@@H]1CCCN1C` [II-143] the IC50 (AsPC-1 cells) was 1510 nM, the “HLM QH” value [1] was 57% and the fraction unbound [2] was 0.18. The IC50 (SK-CO-1 cells) was 9 nM.
With `CO[C@@H]1C[C@@H]([C@H](C)Oc2cc(N3CCN(C)C4(CC4)C3)nc(-c3noc4c3CCC[C@@]43CCCc4sc(N)c(C#N)c43)n2)N(C)C1` [II-152] the IC50 (AsPC-1 cells) was 526 nM, the “HLM QH” value [1] was 58% and the fraction unbound [2] was 0.08. It also gave an IC50 (SK-CO-1 cells) of 955 nM.
In the case of `C[C@H](Oc1cc(N2CCN(C)C3(CC3)C2)nc(-c2noc3c2CCC[C@@]32CCCc3sc(N)c(C#N)c32)n1)[C@@H]1CCCN1C` [II-171], the IC50 (AsPC-1 cells) is reported as 295 nM, the “HLM QH” value [1] is reported as 32% and the fraction unbound [2] is reported as 0.23. For the same compound, the IC50 (SK-CO-1 cells) was 1530 nM.
